Measured values: ChEMBL document CHEMBL3994622, “Design and synthesis of new RAF kinase-inhibiting antiproliferative quinoline derivatives. Part 2: Diarylurea derivatives” (Eur J Med Chem, 2017)

Legend:
Type in all cases: functional
[1] = test system: T47D; assay: Growth inhibition of human T47D cells assessed as cell growth at 1 uM incubated for 48 hrs by sulforhodamine B assay relative to control; conditions: read-out: Activity
[2] = test system: EKVX; assay: Growth inhibition of human EKVX cells assessed as cell growth at 1 uM incubated for 48 hrs by sulforhodamine B assay relative to control; conditions: read-out: Activity
[3] = test system: T47D; assay: Growth inhibition of human T47D cells assessed as cell growth at 0.1 uM incubated for 48 hrs by sulforhodamine B assay relative to control; conditions: read-out: Activity
[4] = test system: HT-29; assay: Growth inhibition of human HT-29 cells assessed as cell growth at 1 uM incubated for 48 hrs by sulforhodamine B assay relative to control; conditions: HT-29, 48 h, read-out: Activity
[5] = test system: SNB-75; assay: Growth inhibition of human SNB75 cells assessed as cell growth at 0.01 uM incubated for 48 hrs by sulforhodamine B assay relative to control; conditions: SNB-75, 48 h, read-out: Activity
[6] = test system: CAKI-1; assay: Growth inhibition of human Caki1 cells assessed as cell growth at 0.1 uM incubated for 48 hrs by sulforhodamine B assay relative to control; conditions: CAKI-1, 48 h, read-out: Activity
[7] = test system: SF-295; assay: Growth inhibition of human SF295 cells assessed as cell growth at 0.01 uM incubated for 48 hrs by sulforhodamine B assay relative to control; conditions: SF-295, 48 h, read-out: Activity
[8] = test system: M14; assay: Growth inhibition of human M14 cells assessed as cell growth at 10 uM incubated for 48 hrs by sulforhodamine B assay relative to control; conditions: M14, 48 h, read-out: Activity
[9] = test system: NCI-H226; assay: Growth inhibition of human NCI-H226 cells assessed as cell growth at 100 uM incubated for 48 hrs by sulforhodamine B assay relative to control; conditions: NCI-H226, 48 h, read-out: Activity
[10] = test system: SW-620; assay: Growth inhibition of human SW620 cells assessed as cell growth at 0.01 uM incubated for 48 hrs by sulforhodamine B assay relative to control; conditions: SW-620, 48 h, read-out: Activity
[11] = test system: OVCAR-8; assay: Growth inhibition of human OVCAR8 cells assessed as cell growth at 0.01 uM incubated for 48 hrs by sulforhodamine B assay relative to control; conditions: OVCAR-8, 48 h, read-out: Activity
[12] = test system: OVCAR-8; assay: Growth inhibition of human OVCAR8 cells assessed as cell growth at 1 uM incubated for 48 hrs by sulforhodamine B assay relative to control; conditions: OVCAR-8, 48 h, read-out: Activity
[13] = test system: HL-60(TB); assay: Growth inhibition of human HL-60(TB) cells assessed as cell growth at 1 uM incubated for 48 hrs by sulforhodamine B assay relative to control; conditions: HL-60, 48 h, read-out: Activity
[14] = test system: LOX IMVI; assay: Growth inhibition of human LOXIMVI cells assessed as cell growth at 0.01 uM incubated for 48 hrs by sulforhodamine B assay relative to control; conditions: read-out: Activity
[15] = test system: NCI-H460; assay: Growth inhibition of human NCI-H460 cells assessed as cell growth at 0.003 uM incubated for 48 hrs by sulforhodamine B assay relative to control; conditions: NCI-H460, 48 h, read-out: Activity
[16] = test system: MOLT-4; assay: Growth inhibition of human MOLT4 cells assessed as cell growth at 30 uM incubated for 48 hrs by sulforhodamine B assay relative to control; conditions: MOLT-4, 48 h, read-out: Activity
[17] = test system: IGROV-1; assay: Growth inhibition of human IGROV1 cells assessed as cell growth at 0.03 uM incubated for 48 hrs by sulforhodamine B assay relative to control; conditions: IGROV-1, 48 h, read-out: Activity
[18] = test system: 786-0; assay: Growth inhibition of human 786-0 cells assessed as cell growth at 30 uM incubated for 48 hrs by sulforhodamine B assay relative to control; conditions: 786-0, 48 h, read-out: Activity
[19] = test system: KM12; assay: Growth inhibition of human KM12 cells assessed as cell growth at 30 uM incubated for 48 hrs by sulforhodamine B assay relative to control; conditions: KM12, 48 h, read-out: Activity
[20] = test system: NCI-H522; assay: Growth inhibition of human NCI-H522 cells assessed as cell growth at 0.3 uM incubated for 48 hrs by sulforhodamine B assay relative to control; conditions: NCI-H522, 48 h, read-out: Activity
[21] = test system: HL-60(TB); assay: Growth inhibition of human HL-60(TB) cells assessed as cell growth at 0.3 uM incubated for 48 hrs by sulforhodamine B assay relative to control; conditions: HL-60, 48 h, read-out: Activity
[22] = test system: UO-31; assay: Growth inhibition of human UO31 cells assessed as cell growth at 30 uM incubated for 48 hrs by sulforhodamine B assay relative to control; conditions: UO-31, 48 h, read-out: Activity
[23] = test system: HOP-92; assay: Growth inhibition of human HOP92 cells assessed as cell growth at 0.3 uM incubated for 48 hrs by sulforhodamine B assay relative to control; conditions: HOP-92, 48 h, read-out: Activity
[24] = test system: U-251; assay: Growth inhibition of human U251 cells assessed as cell growth at 0.3 uM incubated for 48 hrs by sulforhodamine B assay relative to control; conditions: U-251, 48 h, read-out: Activity
[25] = test system: SK-MEL-2; assay: Growth inhibition of human SK-MEL-2 cells assessed as cell growth at 30 uM incubated for 48 hrs by sulforhodamine B assay relative to control; conditions: SK-MEL-2, 48 h, read-out: Activity
[26] = test system: KM12; assay: Growth inhibition of human KM12 cells assessed as cell growth at 0.003 uM incubated for 48 hrs by sulforhodamine B assay relative to control; conditions: KM12, 48 h, read-out: Activity
[27] = test system: CAKI-1; assay: Growth inhibition of human Caki1 cells assessed as cell growth at 0.3 uM incubated for 48 hrs by sulforhodamine B assay relative to control; conditions: CAKI-1, 48 h, read-out: Activity
[28] = test system: NCI-H460; assay: Growth inhibition of human NCI-H460 cells assessed as cell growth at 0.3 uM incubated for 48 hrs by sulforhodamine B assay relative to control; conditions: NCI-H460, 48 h, read-out: Activity
[29] = test system: SF-295; assay: Growth inhibition of human SF295 cells assessed as cell growth at 0.3 uM incubated for 48 hrs by sulforhodamine B assay relative to control; conditions: SF-295, 48 h, read-out: Activity
[30] = test system: NCI-H23; assay: Growth inhibition of human NCI-H23 cells assessed as cell growth at 3 uM incubated for 48 hrs by sulforhodamine B assay relative to control; conditions: NCI-H23, 48 h, read-out: Activity
[31] = test system: HCC 2998; assay: Growth inhibition of human HCC2998 cells assessed as cell growth at 3 uM incubated for 48 hrs by sulforhodamine B assay relative to control; conditions: HCC 2998, 48 h, read-out: Activity
[32] = test system: SNB-75; assay: Growth inhibition of human SNB75 cells assessed as cell growth at 0.3 uM incubated for 48 hrs by sulforhodamine B assay relative to control; conditions: SNB-75, 48 h, read-out: Activity
[33] = test system: M14; assay: Growth inhibition of human M14 cells assessed as cell growth at 0.003 uM incubated for 48 hrs by sulforhodamine B assay relative to control; conditions: M14, 48 h, read-out: Activity
[34] = test system: KM12; assay: Growth inhibition of human KM12 cells assessed as cell growth at 0.3 uM incubated for 48 hrs by sulforhodamine B assay relative to control; conditions: KM12, 48 h, read-out: Activity
[35] = test system: SR; assay: Growth inhibition of human SR cells assessed as cell growth at 30 uM incubated for 48 hrs by sulforhodamine B assay relative to control; conditions: read-out: Activity

COc1cc2cc(Oc3ccc(NC(=O)Nc4ccc(Cl)c(Cl)c4)cc3)c(C)nc2cc1OC
growth at 1 µM [1]: 88%
growth at 1 µM [2]: 81%
growth at 0.1 µM [3]: 103%
growth at 1 µM [4]: 108%
growth at 0.01 µM [5]: 89%
growth at 0.1 µM [6]: 87%
growth at 0.01 µM [7]: 88%
growth at 10 µM [8]: 2%
growth at 100 µM [9]: -85%
growth at 0.01 µM [10]: 101%
growth at 0.01 µM [11]: 101%
growth at 1 µM [12]: 96%
growth at 1 µM [13]: 107%
growth at 0.01 µM [14]: 95%

COc1cc2cc(Oc3ccc(NC(=O)Nc4ccc(Cl)c(C(F)(F)F)c4)cc3)c(C)nc2cc1OC
growth at 0.003 µM [15]: 106%
growth at 30 µM [16]: -36%
growth at 0.03 µM [17]: 107%
growth at 30 µM [18]: -71%
growth at 30 µM [19]: -84%
growth at 0.3 µM [20]: 85%
growth at 0.3 µM [21]: 111%
growth at 30 µM [22]: -71%
growth at 0.3 µM [23]: 84%
growth at 0.3 µM [24]: 94%
growth at 30 µM [25]: -69%
growth at 0.003 µM [26]: 100%
growth at 0.3 µM [27]: 87%
growth at 0.3 µM [28]: 100%
growth at 0.3 µM [29]: 93%
growth at 3 µM [30]: 5%
growth at 3 µM [31]: 29%
growth at 0.3 µM [32]: 90%
growth at 0.003 µM [33]: 97%
growth at 0.3 µM [34]: 96%
growth at 30 µM [35]: -43%

COc1cc2cc(Oc3ccc(NC(=O)Nc4cc(C(F)(F)F)cc(C(F)(F)F)c4)cc3)c(C)nc2cc1OC
growth at 1 µM [1]: 64%
growth at 1 µM [2]: 50%
growth at 0.1 µM [3]: 95%
growth at 1 µM [4]: 75%
growth at 0.01 µM [5]: 81%
growth at 0.1 µM [6]: 90%
growth at 0.01 µM [7]: 88%
growth at 10 µM [8]: -59%
growth at 100 µM [9]: -52%
growth at 0.01 µM [10]: 100%
growth at 0.01 µM [11]: 111%
growth at 1 µM [12]: 76%
growth at 1 µM [13]: 72%
growth at 0.01 µM [14]: 97%

Cc1nc2cc(O)c(O)cc2cc1Oc1ccc(NC(=O)Nc2ccc(Cl)c(Cl)c2)cc1
growth at 0.003 µM [15]: 102%
growth at 30 µM [16]: 2%
growth at 0.03 µM [17]: 104%
growth at 30 µM [18]: -31%
growth at 30 µM [19]: -1%
growth at 0.3 µM [20]: 93%
growth at 0.3 µM [21]: 106%
growth at 30 µM [22]: -51%
growth at 0.3 µM [23]: 77%
growth at 0.3 µM [24]: 87%
growth at 30 µM [25]: -25%
growth at 0.003 µM [26]: 103%
growth at 0.3 µM [27]: 95%
growth at 0.3 µM [28]: 99%
growth at 0.3 µM [29]: 89%
growth at 3 µM [30]: 87%
growth at 3 µM [31]: 96%
growth at 0.3 µM [32]: 75%
growth at 0.003 µM [33]: 96%
growth at 0.3 µM [34]: 104%
growth at 30 µM [35]: -20%
